Test results taken from patent publication EP0096006A2, “3-(Ureidocyclohexylamino)-propane-1,2-diol derivatives, process for their preparation, pharmaceutical preparations containing these compounds and their therapeutical use” (CIBA-GEIGY AG, priority 1982, dated 1983).
pIC50: −log10 of the molar value.

Legend:
[1] = system: spontan hypertensiven Ratten; assay: Systolic blood pressure and heart rate in conscious spontaneously hypertensive rats (tail sphygmomanometry), oral dosing; format: in vivo; conditions: for Abnahme des Bludrucks: second day, 2 hours after dosing; for antihypertensive Wirkung / bradycardische (d.h. die Herzfrequenz herabsetzende) Wirkung: low doses of 10 mg/kg or below
Excerpt: Die in vivo blutdrucksenkende Wirkung wird entweder direkt mit einem Katheter, der z.B. in die fumurale Arterie eines Hundes eingeführt ist, oder indirekt durch Sphygmomanometrie am Rattenschwanz, und einem Uebertragungsinstrument registriert. Der Bludruck wird vor und nach der Verabreichung des Wirkstoffes in mmHg bestimmt.
So kann die antihypertensive Wirkung und die Reduktion der Herzfrequenz bei spontan hypertensiven Ratten nachgewiesen werden, indem man indirekt durch Sphygmomanometrie am Rattenschwanz den systolischen Druck misst. Wache Ratten werden einzeln in Käfige gesperrt, welche sich in einem angenehm warmen Raum befinden. Nachdem Kontrollwerte für Blutdruck und Herzfrequenz gemessen words-n sind, werden die Testverbindungen oral einmal täglich an 2 oder 4 aufeinanderfolgenden Tagen verabreicht. Der Blutdruck wird gewöhnlich 24 Stunden nach der ersten Dosis und dann jeweils 2,0, 4,0 und 24 Stunden nach jeder täglichen Dosis bestimmt, und die Wirkung mit der bei solchen Ratten verglichen, die mit dem Trägermaterial behandelt worden sind.
Gemäss der vorher beschriebenen Methode werden wache Ratten einzeln in Käfige gestellt. Zuerst werden die Kontrollwerte des Blutdrucks ermittelt und dann die einzelnen Testverbindungen einmal täglich, an zwei aufeinanderfolgenden Tagen, oral verabreicht.

[2] = system: renal hypertensiven Hunden; assay: Arterial pressure and heart rate in conscious renal hypertensive dogs, oral dosing; format: in vivo, Hunde; conditions: oral dose 10 mg/kg
Excerpt: Die antihypertensive und bradycardische Wirkung wird ebenso an wachen, chronisch hypertensiven Hunden untersucht; die Hypertension wird dabei durch eine Schwächung der Nierenfunktion erzeugt. Der arterielle Druck wird durch direkte perkutane Punktion der femuralen Arterie, unter Verwendung einer Nadel, die an ein Uebertragungsinstrument angeschlossen ist, registriert. Nach der Aufnahme von Kontrolldaten werden die Hunde oral einmal täglich, 4 Tage lang, mit Kapseln, welche die Testverbindung enthalten, behandelt. Der Blutdruck und die Herzfrequenz werden jeweils 1,5, 3, 6 und 24 Stunden nach der täglichen Dosis bestimmt und die Ergebnisse mit den vor der Behandlung erhaltenen Kontrollwerten verglichen.

[3] = target: β-adrenergischen Rezeptoren; assay: β-receptor binding test in vitro: inhibition of 3H-dihydroalprenolol binding to brain membrane preparation; design: species or system Kalb; conditions: calf brain caudate membranes; 10 min at 37°C; determined graphically; read-out: IC50 (Hemmung der spezifischen Bindung von 1,0 nM 3H-Dihydroalprenolol)
Excerpt: Die β-adrenergische Rezeptorbindungseigenschaften, welche β-adrenergische regulierende, z.B. blockierende Wirkung der genannten neuen Verbindungen anzeigen, werden in einem Test der β-Rezeptorbindung in vitro nach einer Modifikation des Verfahrens bestimmt, wie es in Life Sciences 17, 993 (1975) beschrieben ist.
^3H-Dihydroalprenolol wird spezifisch von Gehirnmembran-Präparaten gebunden und diese Wirkung wird durch bekannte Agonisten und Antagonisten von β-adrenergischen Rezeptoren gehemmt.
Beim Bindungstest werden 2 ml-Proben der Suspension eines Membranpräparates (welches etwa 20 mg Kalbshirn-Caudaten entspricht) in eisgekühlte Reagenzgläser gegeben, welche ^3H-Dihydroalprenolol mit oder ohne Testverbindung, frisch gelöst in 0,1% Ascorbinsäure, enthalten. Die Endkonzentration von ^3H-Dihydroalprenolol ist 1,0 nM. Die Testverbindungen werden innerhalb einer weiten Konzentrationsreihe geprüft. Die Reagenzgläser werden 10 Minuten bei 37°C inkubiert, und die Suspensionen dann sofort unter Vakuum durch Fiberglasfilter filtriert. Die Filter werden mit 15 ml kalter 50 mM Tris-HCi (pH 7,9 bei 25°C) gewaschen, zusammen mit 12 ml Szintillationslösung in Szintillationsampullen gegeben, zunächst 90 Minuten geschüttelt und dann mit dem Zählrohr auf Radioaktivität untersucht.
Die IC50 Werte (welche die Konzentration der Testverbindungen angeben, die nötig ist, um die spezifische Bindung der 1,0 nM ^3H-Dihydrcal- prenolol-Lösung um 50% zu verringern) werden graphisch bestimmt.
Die erfindungsgemässen Verbindungen hemmen die β-Rezeptorbildung des Dihydroalprenolols mit IC50 Werten von […] oder darunter. Beispielsweise weisen die Verbindungen der Beispiele 1, 2a, 3b und 3c IC50-Werte von etwa […] auf.

[4] = system: normotensiven Kaninchen; assay: Intraocular pressure reduction in normotensive rabbits, topical application (anti-glaucoma effect); format: in vivo
Protocol: Die Anticlaucoma-Wirkung der erfindungsgemässen Verbindungen ist an der intraokularen Druckverminderung abzulesen, die an Säugetieren, z.B. bei normotensiven Kaninchen, im wesentlichen nach der von D.E. Potter und J.M. Rowland in Experimental Eye Research 27, 615-625, (1978) beschriebenen Methodik nachgewiesen werden kann. Die intraokulare Druckverminderung wird wie folgt bestimmt: 2 x 50 µl einer Lösung der Testverbindung in sterilisiertem Wasser von unterschiedlicher Konzentration werden bei männlichen, neuseeländischen Albinokaninchen, die 3-4 kg wiegen, jeweils auf ein Auge appliziert, und 2 x 50 µl des Trägermaterials werden zur Kontrolle auf das kontralaterale Auge appliziert. Der intraokulare Druck (in mm Hg) in jedem Auge wird direkt vor der Behandlung tonometrisch gemessen, und dann 1,2 bzw. 3 Stunden nach der Verabreichung. Es wird der Unterschied des intraokularen Druckes zwischen behandeltem Auge und Kontrollauge bestimmt.
Beispielsweise zeigen die erfindungsgemässen Verbindungen der Beispiele 1 und 2a, bei einer Konzentration von etwa 20 bzw.

[5] = 50 mg/kg p.o. once daily for 2 days

SMILES	Abnahme des Bludrucks [1, 5] [mm Hg]	antihypertensive Wirkung [1]	bradycardische (d.h. die Herzfrequenz herabsetzende) Wirkung [1]	pIC50 [3]	other results
C=CCOc1ccccc1OCC(O)CN[C@H]1CC[C@@H](N2CCNC2=O)CC1 (mixture of isomers) [Beispiel 1, cis-1-(4-[3-(o-Allyloxyphenoxy)-2-hydroxypropylamino]-cyclohexyl)-2-imidazolidinon-hemifumarat]	-79.3	deutliche	deutliche	~7.10	Herzfrequenz [2]: herabsetzen; mittlerer arterieller Druck [2]: ununterbrochene Verringerung; Verminderung des intraokularen Druckes ([4]; concentration about 20 nM): deutliche Verminderung
C#CCOc1ccccc1OCC(O)CN[C@H]1CC[C@H](N2CCNC2=O)CC1 (mixture of isomers) [Beispiel 3c]	-30.0			~8.40	
O=C1NCCN1[C@H]1CC[C@@H](NCC(O)COc2ccccc2OCC2CC2)CC1 (mixture of isomers) [Beispiel 3m]		deutliche	deutliche		Herzfrequenz [2]: herabsetzen; mittlerer arterieller Druck [2]: ununterbrochene Verringerung
O=C1NCCN1[C@H]1CC[C@@H](NC[C@H](O)COc2ccccc2OCC2CC2)CC1 [Beispiel 2a, (S)-cis-1-(4-[3-(o-Cyclopropylmethoxyphenoxy)-2-hydroxypropylamino]-cyclohexyl)-2-imidazolidinon-hemifumarat]		deutliche	deutliche	~8.30	Abnahme des Bludrucks ([1]; 30 mg/kg p.o. once daily for 2 days): -75.5 mm Hg; Verminderung des intraokularen Druckes ([4]; concentration about 6,4 nM): deutliche Verminderung
COc1ccccc1OCC(O)CN[C@H]1CC[C@@H](N2CCNC2=O)CC1 (stereo partly drawn) [Beispiel 3a]	-39.3				
C#CCOc1cccc(OCC(O)CN[C@H]2CC[C@@H](N3CCNC3=O)CC2)c1 (stereo partly drawn) [Beispiel 3d]	-52.3				
N#Cc1ccccc1OCC(O)CN[C@H]1CC[C@@H](N2CCNC2=O)CC1 (stereo partly drawn) [Beispiel 3f]	-11.0				
N#Cc1ccccc1OCC(O)CN[C@H]1CC[C@H](N2CCNC2=O)CC1 (stereo partly drawn) [Beispiel 3g]	-33.0				
O=C1NCCN1[C@H]1CC[C@@H](NCC(O)COc2ccccc2-n2cccc2)CC1 (stereo partly drawn) [Beispiel 3h]	-68.0				
COCCc1ccc(OCC(O)CN[C@H]2CC[C@@H](N3CCNC3=O)CC2)cc1 (stereo partly drawn) [Beispiel 3k]	-17.6				
